What was measured:
[1] = system: Ar-5 T cells (NF-AT induction, IL-2 gene expression); test: Induction of NF-AT and IL-2 gene expression in activated Ar-5 T cells; assay type: cell-based, murine; settings: Ar-5 cells activated through T cell antigen receptor/CD3
Protocol: For preparation of nuclear extracts from activated T cells, cells were incubated for two hours with cross-linked anti-CD3ε monoclonal antibody (145-2C11, Kubo, R. T., Born, W., Kappler, J. W., Marrack, P., and Pigeon, M. (1989) J. Immunol. 142, 2736-2742) in the presence or absence of 1 μM CsA. Activation conditions and preparation of nuclear extracts was exactly as previously described (McCaffrey, P. G., Jain, J., Jamieson, C., Sen, R., and Rao, A. (1992) J. Biol. Chem. 267, 1864-1871). Protein determinations were done by the method of Bradford (Bradford, M. (1976) Anal. Biochem. 72,248-254), using bovine serum albumin as a standard.
To characterize the preexisting, DNA-binding component of NF-AT, we have used the murine IL-2 dependent T cell clone Ar-5. Activation of Ar-5 cells with monoclonal antibodies to the T cell antigen receptor or its associated CD3 complex causes the rapid appearance in the nucleus of several inducible transcription factor including NF-AT, which is followed by expression of the IL-2 gene and cell proliferation (Jamieson, C., McCaffrey, P. G., Rao, A., and Sen, R. (1991) J. Immunol. 147,416-420). […] We have previously established that unactivated Ar-5 cells contain a protein or proteins, extracted under hypotonic lysis conditions, that can bind in the EMSA to an oligonucleotide comprising the distal NF-AT sequence from the murine IL-2 promoter. […]

[2] = system: NF-ATp dephosphorylation in Ar-5 T cell extracts; test: Dephosphorylation of NF-ATp (apparent molecular weight by SDS-PAGE, renaturation, EMSA) in extracts of drug-treated Ar-5 T cells; assay type: cell-based, murine; settings: prior treatment of T cells for 10 minutes with 1 μM CsA or 100 nM FK506 before lysis
Protocol: To prepare hypotonic extracts, cells were harvested by centrifugation, washed with phosphate buffered saline and resuspended to 10^8 cells/ml in buffer containing 7.5 mM Tris (pH 7.6), 2 mM PMSF, 1 mM MgCl2, 0.5 mM DTT, 0.25 mM leupeptin, 0.1 mM EDTA and 1 mg/ml aprotinin. The cells were lysed by quick-freezing in dry ice and rapid thawing in a room-temperaturewater bath, followed by centrifugation at 12,000 x g for 10 minutes. Where indicated, cells were treated before harvesting with 1 μM CsA (Sandoz Corp.) or 100 nM FK506 (Fujisawa Pharmaceutical) for 10 minutes at 37° C.
Hypotonic or nuclear extracts were boiled in SDS-PAGE sample buffer (65 mM Tris, pH 6.8, 2% SDS, 2% 2-mercaptoethanol, 10% glycerol, 0.01 mg/ml bromphenol blue) and fractionated on 3 mm thick SDS-polyacrylamide gels by standard methods (Laemmli, U. K. (1970) Nature 227, 680-685). Molecular weight standards (BioRad Laboratories) were also run on the same gel. After electrophoresis, the standards were cut off and separately stained. For recovery of proteins from the gels, slices (1 cm×0.5 cm) from wet, unfixed gels were crushed and eluted overnight in 50 mM Tris, pH 7.9, 1 mM DTT, 0.2 mM EDTA, 0.1 mM PMSF, 0.1 mg/ml BSA, 2.5% glycerol and 0.1% SDS (Baeuerle, P., and Baltimore, D. (1988) Cell 53, 211-217). […]

SMILES: C=CC[C@@H]1/C=C(\C)C[C@H](C)C[C@H](OC)[C@H]2O[C@@](O)(C(=O)C(=O)N3CCCC[C@H]3C(=O)O[C@H](/C(C)=C/[C@@H]3CC[C@@H](O)[C@H](OC)C3)[C@H](C)[C@@H](O)CC1=O)[C@H](C)C[C@@H]2OC [FK506]
- Induction of NF-AT and subsequent IL-2 gene expression [1]: completely blocked
- Dephosphorylation of NF-ATp in cell extracts [2]: inhibited

Reference: patent US5656452A, “NF-ATp, ' a T lymphocyte DNA-binding protein” (President and Fellows of Harvard College, priority 1993, dated 1997)
